Data: patent US6800637B2, “Antidepressant indolealkyl derivatives of heterocycle-fused benzodioxan methylamines” (Wyeth, priority 2002, dated 2004)
Counter-ions that a name gives are not always drawn.

In the case of `Cc1nc2ccc3c(c2o1)OC(CN(C)CCCc1c[nH]c2ccc(F)cc12)CO3` (stereo not shown) (as salt: hydrochloride) [Example 24, N-[3-(5-Fluoro-1H-indol-3-yl)propyl]-N-methyl-N-(2-methyl-7,8-dihydro[1,4]dioxino[2,3-g][1,3]benzoxazol-8-ylmethyl)amine], the melting point is reported as 136 to 139 °C. For `Cc1ccc2c3c(ccc2n1)OCC(CNCCCCn1ccc2ccc(F)cc21)O3` (stereo not shown) (as salt: hydrochloride) [Example 38, [4-(6-Fluoro-indol-1-yl)-butyl]-(8-methyl-2,3-dihydro-[1,4]dioxino[2,3-f]quinolin-2-ylmethyl)-amine], the melting point was 122 to 127 °C. With `Fc1ccc2[nH]cc(CCCNC[C@H]3COc4ccc5ncccc5c4O3)c2c1` (as salt: hydrochloride) [Example 14, N-(2,3-Dihydro-[1,4]dioxino[2,3-f]quinolin-2-ylmthyl)-N-[3-(5-fluoro-1H-indol-3-yl)propyl]amine] the melting point was 196 to 199 °C. For `Cc1ccc2c3c(ccc2n1)OCC(CNCCCc1c[nH]c2ccccc12)O3` (stereo not shown) (as salt: fumarate) [Example 6, N-[3-(1H-Indol-3-yl)propyl]-N-(8-methyl-2,3-dihydro-[1,4]dioxino[2,3-f]quinolin-2-ylmethyl)amine], the melting point was 202 to 203 °C. For `Cc1ccc2c3c(ccc2n1)OCC(CN(C)CCCn1ccc2ccc(F)cc21)O3` (stereo not shown) (as salt: hydrochloride) [Example 34, [3-(6-Fluoro-indol-1-yl)-propyl]-methyl-(8-methyl-2,3-dihydro-[1,4]dioxino[2,3-f]quinolin-2-ylmethyl)-amine], the melting point was 75.9 to 83.7 °C. Molecule `Cc1ccc2c3c(ccc2n1)OCC(CNCCCCc1c[nH]c2ccc(F)cc12)O3` (stereo not shown) (as salt: fumarate) [Example 10, N-[4-(5-Fluoro-1H-indol-3-yl)butyl]-N-(8-methyl-2,3-dihydro-[1,4]dioxino[2,3-f]quinolin-2-ylmethyl)amine] has a melting point of 138 to 154 °C. `COc1cccc2c(CCCNCC3COc4ccc5nc(C)ccc5c4O3)coc12` (stereo not shown) (as salt: fumarate) [Example 19, N-[3-(7-Methoxy-1-benzofuran-3-yl)propyl]-N-(8-methyl-2,3-dihydro-[1,4]dioxino[2,3-f]quinolin-2-ylmethyl)amine] showed a melting point of 155 to 160 °C. With `Cc1ccc2c3c(ccc2n1)OCC(CNCCCn1ccc2ccc(F)cc21)O3` (stereo not shown) (as salt: hydrochloride) [Example 33, [3-(6-Fluoro-indol-1-yl)-propyl]-(8-methyl-2,3-dihydro-[1,4]dioxino[2,3-f]quinolin-2-ylmethyl)amine] the melting point was 154 to 156 °C. `Cc1ccc2c3c(ccc2n1)OCC(CN(C)CCCCc1cn(C)c2ccc(F)cc12)O3` (stereo not shown) (as salt: hydrochloride) [Example 44, [4-(5-Fluoro-1-methyl-1H-indol-3-yl)-butyl]-methyl-(8-methyl-2,3-dihydro-[1,4]dioxino[2,3-f]quinolin-2-ylmethyl)-amine] showed a melting point of 275 to 276 °C. For `Cc1nc2ccc3c(c2o1)O[C@@H](CN(C)CCCc1c[nH]c2ccc(C#N)cc12)CO3` (as salt: hydrochloride) [Example 31, 3-{3-[M thyl-(2-methyl-7,8-dihydro-[1,4]dioxino[2,3[-g][1,3]benzoxazol-8-ylmethyl)-amino]-propyl)}-1H-indole-5-carbonitrile], the melting point was 140 °C (dec.). Work on `Cc1ccc2c3c(ccc2n1)OC[C@H](CNCCCc1csc2ccc(F)cc12)O3` (as salt: fumarate) [Example 51, N-[3-(5-Fluoro-1-benzothien-3-yl)propyl]-N-{[(2S)-8-methyl-2,3-dihydro[1,4]dioxino[2,3-f]quinolin-2-yl]methyl}amine] yielded a melting point of 117 to 120 °C. Work on `Cc1ccc2c3c(ccc2n1)OC[C@H](CNCCCCc1csc2ccc(Cl)cc12)O3` (as salt: fumarate) [Example 49] yielded a melting point of 140 to 144 °C. With `Cc1ccc2c3c(ccc2n1)OCC(CNCCCCc1coc2ccccc12)O3` (stereo not shown) (as salt: fumarate) [Example 28, N-[4-(1-Benzofuran-3-yl)butyl]-N-(8-methyl-2,3-dihydro-[1,4]dioxino[2,3-f]quinolin-2-ylmethyl)amine] the melting point was 127 to 130 °C. `Cc1ccc2c3c(ccc2n1)OC[C@H](CN(C)CCCc1csc2ccccc12)O3` (as salt: fumarate) [Example 22, N-[3-(1-Benzothien-3-yl)propyl]-N-methyl-N-(8-mthyl-2,3-dihydro-[1,4]dioxino[2,3-f]quinolin-2-ylmthyl)amin] showed a melting point of 123 to 127 °C. Work on `Cc1ccc2c3c(ccc2n1)OCC(CN(C)CCCCc1c[nH]c2ccc(F)cc12)O3` (stereo not shown) (as salt: hydrochloride) [Example 43, [4-(5-Fluoro-1H-indol-3-yl)-butyl]-methyl-(8-methyl-2,3-dihydro-[1,4]dioxino[2,3-f]quinolin-2-ylmethyl}-amine] yielded a melting point of 274 to 275 °C. For `Cc1ccc2c3c(ccc2n1)OCC(CNCCCc1c[nH]c2c(F)cccc12)O3` (stereo not shown) (as salt: fumarate) [Example 8, N-[3-(7-Fluoro-1H-indol-3-yl)propyl]-N-(8-methyl-2,3-dihydro-[1,4]dioxino[2,3-f]quinolin-2-ylmethyl)amine], the melting point was 142 to 150 °C. `Cc1nc2ccc3c(c2o1)O[C@@H](CNCCCc1c[nH]c2ccc(F)cc12)CO3` (as salt: hydrochloride) [Example 23, N-[3-(5-Fluoro-1H-indol-3-yl)propyl]-N-(2-methyl-7,8-dihydro-[1,4]dioxino[2,3-g][1,3]benzoxazol-8-ylmethyl)amine] gave a melting point of 91 to 93 °C. `Cc1ccc2c3c(ccc2n1)OC[C@H](CNCCCc1coc2ccccc12)O3` (as salt: fumarate) [Example 18] showed a melting point of 165 to 170 °C. With `CCN(CCCc1c[nH]c2ccc(F)cc12)C[C@H]1COc2ccc3nc(C)oc3c2O1` (as salt: hydrochloride) [Example 36, Ethyl-[3-(5-fluoro-1H-indol-3-yl)-propyl]-(2-methyl-7,8-dihydro-[1,4]dioxino[2,3-g][1,3]benzoxazol-8-ylmethyl)-amine] the melting point was 115 °C (dec.). In the case of `Cc1ccc2c3c(ccc2n1)OCC(CN(C)CCCc1c[nH]c2ccc(F)cc12)O3` (stereo not shown) (as salt: fumarate) [Example 7, N-[3-(5-Fluoro-1H-indol-3-yl)propyl]-N-methyl-N-(8-methyl-2,3-dihydro-[1,4]dioxino[2,3-f]quinolin-2-ylmethyl)amine], the melting point is reported as 104 to 120 °C. `Cc1ccc2c3c(ccc2n1)OCC(CNCCCCc1c[nH]c2ccccc12)O3` (stereo not shown) (as salt: fumarate) [Example 9, N-[4-(1H-indol-3-yl)butyl]-N-(8-methyl-2,3-dihydro-[1,4]dioxino[2,3-f]quinolin-2-ylmethyl)amine] showed a melting point of 208 to 210 °C. `Cc1ccc2c3c(ccc2n1)OC[C@H](CNCCCc1csc2ccc(Cl)cc12)O3` (as salt: fumarate) [Example 50] showed a melting point of 193 to 196 °C. Work on `CCN(CCCc1c[nH]c2ccc(F)cc12)CC1COc2ccc3nc(C)ccc3c2O1` (stereo not shown) (as salt: hydrochloride) [Example 25, N-Ethyl-N-[3-(5-Fluoro-1H-indol-3-yl)propyl]-N-(8-methyl-2,3-dihydro-[1,4]dioxino[2,3-f]quinolin-2-ylmethyl)amine] yielded a melting point of 158 to 175 °C. For `Cc1ccc2c3c(ccc2n1)OCC(CN(C)CCCc1cn(C)c2ccc(F)cc12)O3` (stereo not shown) (as salt: hydrochloride) [Example 42, [3-(5-Fluoro-1-methyl-1H-indol-3-yl)-propyl]-methyl-(8-methyl-2,3-dihydro-[1,4]dioxino[2,3-f]quinolin-2-ylmethyl)-amine], the melting point was 274 to 275 °C. For `CCCN(CCCc1c[nH]c2ccc(F)cc12)CC1COc2ccc3nc(C)ccc3c2O1` (stereo not shown) (as salt: hydrochloride) [Example 45, [3-(5-Fluoro-1H-indol-3-yl)-propyl]-(8-methyl-2,3-dihydro-[1,4]dioxino[2,3-f]quinolin-2-ylmethyl)-propyl-amine], the melting point was 164 to 170 °C.
